{"source": "patent US10821091B2", "about": "“Retinoid compositions and methods of increasing immune cell-mediated killing of IDH mutant cancer cells” (UNIVERSITY OF PITTSBURGH—OF THE COMMONWEALTH SYSTEM OF …, priority 2017, dated 2020)", "key": {"[1]": {"test_system": "IDH MUT (IDH1 R132H) tumors", "assay": "CCL2 neutralization in ATRA-treated tumor-bearing mice", "type": "in vivo", "conditions": "10 mg/kg ATRA every alternate day, 1 μg anti-CCL2 neutralizing antibody", "description": "IDH WT and MUT (IDH1 R132H) tumor-bearing mice were treated with 10 mg/kg ATRA every alternate day starting on day 18 after tumor inoculation. Mice were also injected with 1 μg anti-CCL2 neutralizing antibody (or anti isotype antibody) on the 1st day of ATRA treatment."}, "[2]": {"test_system": "diffuse IDH mutant glioma", "assay": "ATRA therapy in a human patient, MRI before and after", "type": "in vivo", "conditions": "40 mg/m2 ATRA, 21 days on, 7 days off, three months", "description": "A patient with diffuse IDH mutant glioma was treated with 40 mg/m2 ATRA on a treatment cycle of 21 days on, 7 days off. MRI images of the patient's brain were performed before (FIG. 12A) and after (FIG. 12B) ATRA treatment."}, "[3]": {"test_system": "IDH mutant (HT-1080, R132C IDH1 mutation) chondrosarcoma cells", "assay": "Viability and apoptosis of chondrosarcoma cells", "type": "cell-based", "conditions": "48 hours", "description": "IDH mutant (HT-1080, R132C IDH1 mutation) chondrosarcoma cells were treated with different doses of ATRA or DMSO for 48 hours. After treatment, cells were evaluated for viability (FIG. 11A) and apoptosis by caspase activity (FIG. 11B). […] Additionally, IDH WT cells and IDH mutant chondrosarcoma cells were treated with different doses of ATRA or DMSO for 48 hours."}, "IDH mutant cells": {"test_system": "IDH mutant cells", "assay": "NK cytotoxicity assay (CFSE/7-AAD flow cytometry) on ATRA-treated glioma cells", "type": "cell-based, human", "description": "All-trans Retinoic acid (ATRA) treatment of astrocytes and primary glioma cells. ATRA was purchased from Sigma Aldrich® and reconstituted in DMSO. ATRA was added at a 1 μM final concentration to cell culture medium for 48 hours. After treatment, the cells either lysed in Trizol™ for qPCR analysis, or were used in NK cytotoxicity assays.\nNK-92 cell culture. For some experiments, NK92 cells were used instead of donor NK cells. NK92 cells (ATCC® CRL-2407™) were obtained from ATCC. […] Fresh medium was added every 2-3 days and once a week, the cells were counted and re-suspended at a final concentration of 5×10^5 cells/mL in fresh medium.\nNK cytotoxicity assay. […] After 6 h incubation, the cells were stained with 0.25 μg/ml of 7-AAD and analyzed by flow cytometry.\nATRA induced increased cytotoxic killing of IDH mutant cells in an NKG2D-ligand dependent manner. The ability of ATRA to sensitize IDH mutant cells to killing by NK cells was evaluated. For this purpose, IDH mutant and WT cells were treated with 1 μM ATRA for 48 hours and assessed for killing by NK-92 cells (ATCC) at a 10:1 E:T ratio. […] ATRA-treated cells were also evaluated for expression of NKG2D ligands."}, "[4]": {"test_system": "ATRA-treated IDH mutant tumors", "assay": "Ex vivo NK killing of resected tumors", "type": "cell-based, mice", "conditions": "vs DMSO-treated control tumors", "description": "ATRA promotes tumor stasis in IDH mutant tumor-bearing mice. To determine the value of ATRA as a therapeutic modality, its anti-tumor efficacy in vivo was evaluated. Athymic nude mice were implanted with 10^6 IDH mutant or WT primary glioma cells in the flank. 21 days after tumor inoculation (when tumors were about 25 mm^2), 10 mg/kg ATRA was administered every other day for 21 days. Tumors were measured every 3 days. […] Resected tumors from ATRA or DMSO-treated mice were digested to obtain single cell suspensions and assessed for killing by human and mouse NK cells ex vivo."}, "[5]": {"test_system": "CCL2 and CXCL12 in IDH mutant cells", "assay": "Chemokine array on culture supernatants", "type": "cell-based, human", "description": "ATRA increases chemotaxis towards IDH mutant cells in a CCL2-dependent manner. […] To confirm these findings, chemotaxis assays were performed in vitro. ATRA-treated IDH mutant or WT cells were plated in the bottom well of a transwell. Different immune cell subsets (as indicated) were placed in the top chamber at a 10:1 E:T ratio. After 48 hours, cells from the bottom chamber were harvested and analyzed by flow cytometry. […] To evaluate the mechanisms of changes in chemotaxis induced by ATRA, a chemokine array was performed. Supernatants from ATRA- (or DMSO)-treated WT and IDH mutant cultures were used to assess changes in chemokine expression using a chemokine array kit (R&D systems). Results were interpreted visually as well as quantified using an imaging software (ImageJ). […] To substantiate the role of CCL2 in NK and T cell chemotaxis, transwell assays were repeated as described earlier, in the presence of CCL2-blocking antibody (R&D systems)."}, "IDH mutant tumors": {"test_system": "IDH mutant tumors", "assay": "Comparison of RA isoforms in tumor-bearing mice", "type": "in vivo", "text": "Mice. […] DMSO-treated mice were used as controls.\nTherefore, the efficacy of two other RA isoforms were compared with ATRA in IDH mutant gliomas. […] However, treatment of IDH mutant tumors with all three retinoic acid isoforms reduced tumor size (the bottom 3 data lines at Day 40 having endpoints below 100 mm^2). […] The changes in tumor microenvironment induced by ATRA differed from the other RA isoforms as well."}}, "note": "Entries after “also recorded” stand apart in the source; their conditions may differ.", "data": [{"compound": "CC1=C(/C=C/C(C)=C/C=C/C(C)=C/C(=O)O)C(C)(C)CCC1", "note": "[ATRA, all-trans retinoic acid]", "values": [{"measurement": "tumor stasis with CCL2 blockade", "setting": "[1]", "value": "CCL2 blockade reversed ATRA-mediated tumor stasis"}, {"measurement": "glioma tumor on MRI", "setting": "[2]", "value": "reduction in the size and severity of the glioma tumor"}, {"measurement": "apoptosis by caspase activity", "setting": "[3]; HT-1080, different doses", "value": "induced apoptotic cell death"}, {"measurement": "cell viability", "setting": "[3]; HT-1080, different doses", "value": "decreased cell viability"}, {"measurement": "7-AAD levels (flow cytometry)", "setting": "[3]; IDH WT and IDH mutant chondrosarcoma cells, different doses", "value": "increased 7-AAD levels corresponding to increased apoptotic cell death in a dose-dependent manner"}, {"measurement": "killing by NK cells incubated with NKG2D blocking antibody", "setting": "IDH mutant cells; ATRA-treated IDH mutant cells", "value": "failed to recognize and kill ATRA-treated IDH mutant cells, reducing killing to baseline levels"}, {"measurement": "killing by NK-92 cells", "setting": "IDH mutant cells; IDH mutant cells, 1 μM ATRA 48 hours, 10:1 E:T ratio, vs DMSO-treated controls", "value": "significantly more susceptible to killing by NK-92 cells"}, {"measurement": "ex vivo killing by human natural killer cells", "setting": "[4]", "value": "more susceptible to killing"}, {"measurement": "ex vivo killing by mouse natural killer cells", "setting": "[4]", "value": "more susceptible to killing"}, {"measurement": "levels of CXCL12", "setting": "[5]; ATRA-treated IDH mutant cells vs DMSO-treated controls", "value": "lower levels of CXCL12"}, {"measurement": "CCL2 production", "setting": "[5]; supernatants of ATRA- or DMSO-treated WT and IDH mutant cultures", "value": "CCL2 production was only observed in ATRA treated IDH mutant cells"}, {"measurement": "efficacy at retarding IDH mutant tumor growth compared among RA isoforms", "setting": "IDH mutant tumors; ATRA vs 13-cis RA and bexarotene", "value": "significantly more effective at retarding IDH mutant tumor growth in vivo; also recorded: the most effective RA isoform in terms of tumor growth"}, {"measurement": "tumor microenvironment immune cells", "setting": "IDH mutant tumors; after ATRA treatment, compared with 13-cis RA and bexarotene", "value": "lower MDSCs and monocytes, and higher DCs and macrophages"}, {"measurement": "gene expression levels of ULBP3 ex vivo", "setting": "IDH mutant tumors; compared with 13-cis RA and bexarotene", "value": "higher gene expression levels of ULBP3"}, {"measurement": "killing of IDH mutant cells by NK cells", "setting": "IDH mutant tumors; ex vivo co-culture with human NKs, compared among RA isoforms", "value": "significantly increased killing of IDH mutant cells by NK cells; also recorded: highest level of NK-mediated killing"}]}]}
